These results are taken from ChEMBL document CHEMBL5212743, “Selectivity Literature for EUbOPEN Chemogenomics Library wave 3” (2023).

Experiment [1] has as its target MAP kinase-interacting serine/threonine-protein kinase 2 (Homo sapiens, UniProt Q9HBH9). Put plainly: Selectivity interaction (KinomeScan (DiscoverX, competition-binding assay)) EUB0000637a MKNK2.
Experiment [2] concerns the target Vascular endothelial growth factor receptor 1 (Homo sapiens, UniProt P17948). Briefly: Selectivity interaction (KinomeScan (DiscoverX, competition-binding assay)) EUB0000637a FLT1.
For experiment [3], the target named is Dual specificity protein kinase CLK1 (Homo sapiens, UniProt P49759). Briefly: Selectivity interaction (KinomeScan (DiscoverX, competition-binding assay)) EUB0000637a CLK1.
Experiment [4] concerns the target Sodium-dependent noradrenaline transporter (Homo sapiens, UniProt P23975). Briefly: Selectivity interaction (GPCR panel (PDSP screen)) EUB0000703a SLC6A2.
In experiment [5] the target is Kappa-type opioid receptor (Homo sapiens, UniProt P41145). Briefly: Selectivity interaction (GPCR panel (PDSP screen)) EUB0000703a OPRK1.
Sequence of Kappa-type opioid receptor (P41145 whole entry): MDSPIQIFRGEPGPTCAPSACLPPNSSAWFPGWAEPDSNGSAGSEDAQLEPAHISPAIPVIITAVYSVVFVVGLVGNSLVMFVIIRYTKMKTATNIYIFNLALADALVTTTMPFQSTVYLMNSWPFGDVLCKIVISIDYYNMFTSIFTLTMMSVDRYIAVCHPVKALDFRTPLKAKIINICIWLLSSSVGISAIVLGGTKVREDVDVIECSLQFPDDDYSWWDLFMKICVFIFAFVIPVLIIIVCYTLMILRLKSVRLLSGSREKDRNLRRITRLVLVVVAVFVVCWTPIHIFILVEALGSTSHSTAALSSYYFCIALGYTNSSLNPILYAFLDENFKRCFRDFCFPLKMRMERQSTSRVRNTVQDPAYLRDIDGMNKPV
The subject of experiment [6] is Serine/threonine-protein kinase B-raf (Homo sapiens), P15056 [V600E]. Briefly: Selectivity interaction (KinomeScan (DiscoverX)) EUB0000703a BRAF. Conditions: at 1 µM.
Experiment [7] addresses Epithelial discoidin domain-containing receptor 1 (Homo sapiens, UniProt Q08345). Put plainly: Selectivity interaction (KinomeScan (DiscoverX)) EUB0000703a DDR1. As to conditions: at 1 µM.
The target in a further experiment is D(2) dopamine receptor (Homo sapiens, UniProt P14416). Briefly: Selectivity interaction (GPCR panel (PDSP screen)) EUB0000703a DRD2.
Sequence of D(2) dopamine receptor (P14416 whole entry, canonical isoform): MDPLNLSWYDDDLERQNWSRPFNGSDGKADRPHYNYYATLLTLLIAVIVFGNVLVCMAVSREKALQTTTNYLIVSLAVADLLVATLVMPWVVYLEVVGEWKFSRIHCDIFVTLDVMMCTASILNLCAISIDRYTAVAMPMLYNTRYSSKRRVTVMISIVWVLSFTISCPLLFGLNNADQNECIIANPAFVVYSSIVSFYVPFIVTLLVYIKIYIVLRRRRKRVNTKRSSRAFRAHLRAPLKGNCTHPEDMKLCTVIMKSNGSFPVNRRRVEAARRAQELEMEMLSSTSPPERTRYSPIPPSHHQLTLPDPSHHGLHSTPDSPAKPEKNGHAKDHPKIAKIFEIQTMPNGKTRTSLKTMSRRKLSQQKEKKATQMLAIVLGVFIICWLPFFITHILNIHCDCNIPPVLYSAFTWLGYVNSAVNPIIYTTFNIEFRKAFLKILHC
Experiment [8] deals with Phosphatidylinositol 4,5-bisphosphate 3-kinase catalytic subunit alpha isoform (Homo sapiens, UniProt P42336). Briefly: Selectivity interaction (KinomeScan (DiscoverX)) EUB0000703a PIK3CA. As to conditions: at 1 µM.
Sequence of Phosphatidylinositol 4,5-bisphosphate 3-kinase catalytic subunit alpha isoform (P42336 whole entry, canonical isoform): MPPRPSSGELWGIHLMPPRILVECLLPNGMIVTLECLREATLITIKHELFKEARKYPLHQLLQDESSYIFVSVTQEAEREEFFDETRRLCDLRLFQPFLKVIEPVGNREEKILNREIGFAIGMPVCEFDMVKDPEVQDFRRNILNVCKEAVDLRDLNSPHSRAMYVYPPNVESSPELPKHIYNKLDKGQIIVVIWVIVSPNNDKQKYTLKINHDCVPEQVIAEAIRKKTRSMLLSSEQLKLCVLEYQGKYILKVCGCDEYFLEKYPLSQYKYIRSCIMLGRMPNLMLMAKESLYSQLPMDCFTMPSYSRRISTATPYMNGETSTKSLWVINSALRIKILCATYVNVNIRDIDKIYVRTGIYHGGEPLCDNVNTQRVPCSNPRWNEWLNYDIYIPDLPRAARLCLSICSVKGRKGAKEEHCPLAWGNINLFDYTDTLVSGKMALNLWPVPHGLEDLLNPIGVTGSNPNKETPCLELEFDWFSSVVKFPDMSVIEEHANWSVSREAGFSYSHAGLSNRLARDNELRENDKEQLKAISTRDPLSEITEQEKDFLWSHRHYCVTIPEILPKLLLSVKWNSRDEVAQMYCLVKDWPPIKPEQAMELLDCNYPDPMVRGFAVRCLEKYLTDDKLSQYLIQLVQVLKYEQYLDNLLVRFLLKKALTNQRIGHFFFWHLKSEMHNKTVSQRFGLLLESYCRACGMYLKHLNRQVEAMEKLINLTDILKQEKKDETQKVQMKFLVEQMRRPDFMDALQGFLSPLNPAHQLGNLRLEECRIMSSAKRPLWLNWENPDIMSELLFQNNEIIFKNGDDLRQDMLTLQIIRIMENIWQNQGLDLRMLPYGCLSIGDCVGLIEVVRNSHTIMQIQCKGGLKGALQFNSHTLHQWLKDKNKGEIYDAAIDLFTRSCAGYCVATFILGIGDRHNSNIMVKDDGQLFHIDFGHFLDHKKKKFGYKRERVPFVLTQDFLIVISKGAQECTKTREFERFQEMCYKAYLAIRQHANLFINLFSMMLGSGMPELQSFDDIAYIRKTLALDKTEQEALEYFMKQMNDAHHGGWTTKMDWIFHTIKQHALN
Experiment [9] concerns the target Tyrosine-protein kinase Lyn (Homo sapiens, UniProt P07948). Put plainly: Selectivity interaction (NanoBRET assay (HEK293T cells)) EUB0000703a LYN. Background: In BRET a luciferase serves as donor, and the signal depends on an acceptor being close.
In experiment [10] the target is Discoidin domain-containing receptor 2 (Homo sapiens) (UniProt Q16832). Put plainly: Selectivity interaction (KinomeScan (DiscoverX)) EUB0000703a DDR2. As to conditions: at 1 µM.
Sequence of Discoidin domain-containing receptor 2 (Homo sapiens) (Q16832 whole entry, the tested form may be a part): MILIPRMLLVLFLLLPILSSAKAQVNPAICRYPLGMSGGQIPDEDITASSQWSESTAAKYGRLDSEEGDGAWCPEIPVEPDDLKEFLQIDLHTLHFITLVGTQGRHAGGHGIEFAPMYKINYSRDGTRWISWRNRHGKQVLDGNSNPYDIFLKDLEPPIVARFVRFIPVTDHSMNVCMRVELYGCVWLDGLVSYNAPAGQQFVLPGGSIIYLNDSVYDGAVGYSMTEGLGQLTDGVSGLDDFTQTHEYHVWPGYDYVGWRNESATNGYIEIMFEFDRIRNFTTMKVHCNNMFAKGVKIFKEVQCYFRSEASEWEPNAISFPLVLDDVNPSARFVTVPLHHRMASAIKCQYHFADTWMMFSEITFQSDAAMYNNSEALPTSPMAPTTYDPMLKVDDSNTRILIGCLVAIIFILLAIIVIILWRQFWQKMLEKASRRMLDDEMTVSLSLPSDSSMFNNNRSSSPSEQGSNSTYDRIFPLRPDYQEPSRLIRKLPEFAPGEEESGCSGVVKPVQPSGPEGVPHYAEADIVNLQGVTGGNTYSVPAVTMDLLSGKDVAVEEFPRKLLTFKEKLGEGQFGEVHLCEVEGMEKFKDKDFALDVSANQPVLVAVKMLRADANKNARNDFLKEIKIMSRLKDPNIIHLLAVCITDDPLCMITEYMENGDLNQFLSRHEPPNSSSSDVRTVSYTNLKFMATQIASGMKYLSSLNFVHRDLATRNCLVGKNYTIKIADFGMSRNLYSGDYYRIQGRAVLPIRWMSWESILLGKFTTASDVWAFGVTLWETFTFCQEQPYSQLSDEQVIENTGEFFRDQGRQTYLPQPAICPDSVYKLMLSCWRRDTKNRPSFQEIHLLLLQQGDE
Experiment [11] has as its target T1, Gamma-aminobutyric acid receptor subunit alpha-1 (Homo sapiens, UniProt P14867).
T1 sequence (P14867 whole entry): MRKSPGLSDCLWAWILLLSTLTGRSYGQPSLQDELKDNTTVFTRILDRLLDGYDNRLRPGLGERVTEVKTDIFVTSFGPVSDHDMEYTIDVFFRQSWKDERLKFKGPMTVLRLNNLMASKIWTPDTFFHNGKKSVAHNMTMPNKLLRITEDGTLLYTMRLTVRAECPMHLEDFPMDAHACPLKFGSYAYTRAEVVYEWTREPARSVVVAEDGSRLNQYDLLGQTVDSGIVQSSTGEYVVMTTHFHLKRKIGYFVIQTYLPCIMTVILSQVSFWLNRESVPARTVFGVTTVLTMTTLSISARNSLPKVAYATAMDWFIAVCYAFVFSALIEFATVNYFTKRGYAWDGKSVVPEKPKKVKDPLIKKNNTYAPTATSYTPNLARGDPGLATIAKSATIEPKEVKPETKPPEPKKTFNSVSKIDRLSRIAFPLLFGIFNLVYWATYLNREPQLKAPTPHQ
Briefly: Selectivity interaction (GPCR panel (PDSP screen)) EUB0000703a GABRA1.

Sequence of MAP kinase-interacting serine/threonine-protein kinase 2 (Q9HBH9 whole entry): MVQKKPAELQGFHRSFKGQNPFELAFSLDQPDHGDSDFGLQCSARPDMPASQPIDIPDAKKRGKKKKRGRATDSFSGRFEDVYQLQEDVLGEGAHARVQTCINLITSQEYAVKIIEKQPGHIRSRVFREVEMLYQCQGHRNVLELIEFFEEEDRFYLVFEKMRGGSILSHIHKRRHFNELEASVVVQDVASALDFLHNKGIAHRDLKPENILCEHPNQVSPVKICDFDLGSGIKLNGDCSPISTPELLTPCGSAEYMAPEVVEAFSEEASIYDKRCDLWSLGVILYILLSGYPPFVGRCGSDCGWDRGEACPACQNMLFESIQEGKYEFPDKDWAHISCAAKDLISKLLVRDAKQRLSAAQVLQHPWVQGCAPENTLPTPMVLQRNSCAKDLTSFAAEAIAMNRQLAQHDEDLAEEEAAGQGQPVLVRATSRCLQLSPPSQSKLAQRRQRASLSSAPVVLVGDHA
Sequence of Tyrosine-protein kinase Lyn (P07948 whole entry, the tested form may be a part): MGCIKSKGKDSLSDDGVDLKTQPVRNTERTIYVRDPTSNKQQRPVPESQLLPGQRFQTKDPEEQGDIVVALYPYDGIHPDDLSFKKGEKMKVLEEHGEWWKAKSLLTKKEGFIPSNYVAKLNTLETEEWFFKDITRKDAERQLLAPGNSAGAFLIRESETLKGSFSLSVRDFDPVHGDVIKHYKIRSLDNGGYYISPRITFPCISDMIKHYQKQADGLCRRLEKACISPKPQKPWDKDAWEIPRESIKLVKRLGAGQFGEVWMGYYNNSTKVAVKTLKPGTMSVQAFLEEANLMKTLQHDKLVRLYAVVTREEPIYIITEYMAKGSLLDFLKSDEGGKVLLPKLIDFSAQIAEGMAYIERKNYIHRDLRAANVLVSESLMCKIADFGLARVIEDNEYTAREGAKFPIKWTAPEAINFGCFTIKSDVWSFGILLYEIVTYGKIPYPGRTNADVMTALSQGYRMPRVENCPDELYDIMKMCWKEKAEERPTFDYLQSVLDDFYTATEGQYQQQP
Sequence of Vascular endothelial growth factor receptor 1 (P17948 whole entry): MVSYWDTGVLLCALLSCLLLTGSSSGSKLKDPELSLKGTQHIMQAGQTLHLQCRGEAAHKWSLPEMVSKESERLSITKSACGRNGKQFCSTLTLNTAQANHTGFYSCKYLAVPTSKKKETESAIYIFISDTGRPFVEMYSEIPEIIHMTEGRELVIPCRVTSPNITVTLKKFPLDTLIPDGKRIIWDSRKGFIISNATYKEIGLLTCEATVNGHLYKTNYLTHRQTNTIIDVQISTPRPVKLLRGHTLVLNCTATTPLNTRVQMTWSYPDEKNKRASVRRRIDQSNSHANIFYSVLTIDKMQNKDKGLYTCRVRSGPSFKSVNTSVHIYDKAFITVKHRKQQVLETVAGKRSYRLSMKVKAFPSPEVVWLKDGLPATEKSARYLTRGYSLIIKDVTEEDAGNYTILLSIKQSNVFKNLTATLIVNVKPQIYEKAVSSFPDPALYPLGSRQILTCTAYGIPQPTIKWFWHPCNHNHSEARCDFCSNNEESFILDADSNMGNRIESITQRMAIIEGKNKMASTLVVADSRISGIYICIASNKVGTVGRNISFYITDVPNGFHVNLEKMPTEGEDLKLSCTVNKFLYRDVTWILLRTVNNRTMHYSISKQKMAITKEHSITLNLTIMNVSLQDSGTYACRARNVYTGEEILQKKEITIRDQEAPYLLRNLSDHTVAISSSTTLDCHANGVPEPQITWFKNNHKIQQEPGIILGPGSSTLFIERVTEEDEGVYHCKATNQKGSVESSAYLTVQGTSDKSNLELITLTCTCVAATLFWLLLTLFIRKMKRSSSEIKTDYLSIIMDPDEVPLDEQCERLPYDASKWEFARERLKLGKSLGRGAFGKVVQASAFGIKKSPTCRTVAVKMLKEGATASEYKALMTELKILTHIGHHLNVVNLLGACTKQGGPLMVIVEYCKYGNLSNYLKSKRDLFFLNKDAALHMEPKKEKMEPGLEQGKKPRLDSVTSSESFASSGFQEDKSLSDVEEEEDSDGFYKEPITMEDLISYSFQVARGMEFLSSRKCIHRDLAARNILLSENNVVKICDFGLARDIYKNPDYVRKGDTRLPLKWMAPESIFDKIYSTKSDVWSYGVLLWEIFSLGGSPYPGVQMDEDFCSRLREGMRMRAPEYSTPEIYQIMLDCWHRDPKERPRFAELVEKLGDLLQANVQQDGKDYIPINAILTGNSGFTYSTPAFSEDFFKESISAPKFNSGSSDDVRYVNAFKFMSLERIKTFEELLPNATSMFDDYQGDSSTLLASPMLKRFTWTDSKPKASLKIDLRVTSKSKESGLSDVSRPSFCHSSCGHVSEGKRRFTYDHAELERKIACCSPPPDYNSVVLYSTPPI

In general, Kd refers to the constant that tells how readily two partners part at equilibrium. A high value points to weaker binding. For the molecule `NC(=O)c1ccc2nc(-c3ccc(C4(N)CCC4)cc3)c(-c3ccccc3)n2n1` [BAY-1125976], the Kd in experiment [1] came to 0.33 µM; in experiment [2], 0.21 µM; in [3], 0.31 µM.

The Ki is a dissociation constant, usually derived from enzyme kinetics or from competition with a known ligand. One may read the IC50 as the concentration needed to halve the response being measured. A lower IC50 goes with inhibition by little substance. In the case of `Cc1cc(NC(=O)c2cccc(S(F)(F)(F)(F)F)c2)cc(-n2ccn3nc(-c4cccnc4)cc23)c1` [BAY-309], the Ki is above 10 µM in experiment [4], above 10 µM in [5], above 10 µM at D(2) dopamine receptor and 10.9 µM in [11]. The % of control in experiment [6] is 24%; in [7], 0%; in [8], 23%; in experiment [10], 18%. Also, the half-maximal inhibitory concentration (IC50) in experiment [9] came out at 7 µM.
